Measurements from PMC5833296 (Journal of medicinal chemistry, 2018).
Like-named read-outs stand apart in the source and are kept apart here. Marks after values point to notes of the source that are not given here.

Tests used:
[1] = tested on: BoNT/A; settings: mouse, in vivo; cited from earlier work
[2] = molecular target: BoNT/A holotoxin (Clostridium botulinum, UniProt P0DPI0)
[3] = molecular target: BoNT/A holotoxin (Clostridium botulinum, UniProt P0DPI1); experiment: cell-based
[4] = tested on: BoNT/A holotoxin
[5] = tested on: CYP450 enzymes (CYP3A4, CYP2C19, CYP2D6); experiment: in vitro; settings: human
[6] = tested on: AGP; settings: pH 7.34
[7] = molecular target: HSA (Homo sapiens, UniProt P02768); settings: pH 7.34
HSA, sequence (P02768 25-609): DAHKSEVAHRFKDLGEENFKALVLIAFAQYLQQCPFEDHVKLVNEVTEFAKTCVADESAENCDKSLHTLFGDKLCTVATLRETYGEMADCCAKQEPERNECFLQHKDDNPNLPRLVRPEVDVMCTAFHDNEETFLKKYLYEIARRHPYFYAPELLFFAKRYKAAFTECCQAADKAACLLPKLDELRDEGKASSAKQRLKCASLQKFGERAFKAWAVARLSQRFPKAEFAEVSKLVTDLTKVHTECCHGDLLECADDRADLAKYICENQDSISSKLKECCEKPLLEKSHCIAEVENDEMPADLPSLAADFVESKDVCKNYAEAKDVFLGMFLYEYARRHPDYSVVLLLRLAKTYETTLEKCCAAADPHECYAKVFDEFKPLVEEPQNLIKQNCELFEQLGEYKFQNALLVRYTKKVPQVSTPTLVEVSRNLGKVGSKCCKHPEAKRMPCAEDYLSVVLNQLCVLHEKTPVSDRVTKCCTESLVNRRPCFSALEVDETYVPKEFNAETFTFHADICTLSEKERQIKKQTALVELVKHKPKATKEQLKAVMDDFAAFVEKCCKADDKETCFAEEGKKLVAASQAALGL

[8] = tested on: healthy mice; settings: mouse, in vivo; for Mice alive/Total mice: po, 160 mg/kg
[9] = in vivo

BoNT/A holotoxin (Clostridium botulinum, UniProt P0DPI1), sequence (P0DPI1 2-448 limits assumed): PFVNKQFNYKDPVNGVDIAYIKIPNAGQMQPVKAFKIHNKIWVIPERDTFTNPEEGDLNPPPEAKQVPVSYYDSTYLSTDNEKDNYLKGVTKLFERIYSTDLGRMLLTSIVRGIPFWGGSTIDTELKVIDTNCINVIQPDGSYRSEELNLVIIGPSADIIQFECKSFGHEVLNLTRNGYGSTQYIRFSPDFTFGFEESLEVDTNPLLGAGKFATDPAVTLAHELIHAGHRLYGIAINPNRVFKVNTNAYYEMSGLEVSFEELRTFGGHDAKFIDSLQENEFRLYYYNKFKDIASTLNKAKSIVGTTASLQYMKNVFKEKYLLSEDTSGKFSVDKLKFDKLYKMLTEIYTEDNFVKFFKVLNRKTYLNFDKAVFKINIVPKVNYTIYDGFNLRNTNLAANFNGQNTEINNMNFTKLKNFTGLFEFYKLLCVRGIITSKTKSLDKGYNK
BoNT/A holotoxin (Clostridium botulinum, UniProt P0DPI0), sequence (P0DPI0 2-1296 limits assumed): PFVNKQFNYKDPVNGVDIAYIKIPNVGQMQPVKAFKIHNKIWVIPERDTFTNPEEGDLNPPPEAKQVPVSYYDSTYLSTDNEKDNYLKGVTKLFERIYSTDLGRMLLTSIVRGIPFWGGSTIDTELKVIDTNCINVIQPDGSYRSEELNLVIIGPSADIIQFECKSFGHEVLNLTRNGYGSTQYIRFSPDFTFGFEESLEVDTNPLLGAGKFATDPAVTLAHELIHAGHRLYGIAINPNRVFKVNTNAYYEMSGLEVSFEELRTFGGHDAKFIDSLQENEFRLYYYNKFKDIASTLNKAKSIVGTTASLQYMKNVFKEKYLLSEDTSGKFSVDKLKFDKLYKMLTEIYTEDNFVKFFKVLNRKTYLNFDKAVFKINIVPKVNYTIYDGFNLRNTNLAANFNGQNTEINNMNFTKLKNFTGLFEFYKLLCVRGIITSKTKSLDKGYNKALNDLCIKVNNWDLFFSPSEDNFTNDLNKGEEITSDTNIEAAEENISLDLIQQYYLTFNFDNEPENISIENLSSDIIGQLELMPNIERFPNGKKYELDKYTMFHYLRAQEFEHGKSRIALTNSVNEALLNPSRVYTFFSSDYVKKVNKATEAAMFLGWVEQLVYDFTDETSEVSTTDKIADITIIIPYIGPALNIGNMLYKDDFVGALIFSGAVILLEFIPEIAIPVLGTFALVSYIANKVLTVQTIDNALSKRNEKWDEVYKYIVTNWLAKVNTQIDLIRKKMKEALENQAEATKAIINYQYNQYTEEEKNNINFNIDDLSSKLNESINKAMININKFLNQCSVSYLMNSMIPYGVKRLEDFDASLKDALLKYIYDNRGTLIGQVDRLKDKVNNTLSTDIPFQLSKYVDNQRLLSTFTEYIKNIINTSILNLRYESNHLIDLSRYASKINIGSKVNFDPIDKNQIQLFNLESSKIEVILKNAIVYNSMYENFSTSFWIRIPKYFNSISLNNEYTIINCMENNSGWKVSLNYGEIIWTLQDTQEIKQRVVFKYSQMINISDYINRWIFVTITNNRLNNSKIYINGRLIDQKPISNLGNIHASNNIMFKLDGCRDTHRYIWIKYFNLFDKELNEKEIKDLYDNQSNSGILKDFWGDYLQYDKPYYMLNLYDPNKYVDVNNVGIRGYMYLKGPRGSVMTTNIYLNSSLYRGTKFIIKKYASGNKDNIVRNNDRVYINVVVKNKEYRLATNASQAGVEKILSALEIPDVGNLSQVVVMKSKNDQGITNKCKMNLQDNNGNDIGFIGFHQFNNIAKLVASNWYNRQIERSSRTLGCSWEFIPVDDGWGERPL

Compound	% of full length SNAP-25, mES-MNs pre intoxication ([3]; 10 μM)	% of full length SNAP-25, mES-MNs pre intoxication ([3]; 20 μM)	exp LogD (pH 1)	exp LogD (pH 10)	also measured
O=C(CS)Nc1cc(-c2ccc(F)cc2)n[nH]1 [ABS 252, N-(3-(4-fluorophenyl)-1H pyrazol-5 yl)-2-mercaptoacetamide]					survival of BoNT intoxicated mice [1]: effective in extending survival
CC(=O)O[C@H]1C[C@H]2[C@@H]([C@H](OC(C)=O)C[C@@H]3C[C@H](NCCCCCCNc4ccnc5cc(Cl)ccc45)CC[C@@]32C)[C@@H]2CC[C@H]([C@H](C)CCCNCCCCCCNc3ccnc4cc(Cl)ccc34)[C@@]12C [Compound 1, reference compound]	70; 84%	70; 84%			% of full length SNAP-25, mES-MNs post intoxication [2]: 36; 20%; IC50 [3]: < 10 µM
CC(=O)O[C@H]1C[C@H]2[C@@H]([C@H](OC(C)=O)C[C@@H]3C[C@H](N)CC[C@@]32C)[C@@H]2CC[C@H]([C@H](C)CCCNCCCCNc3ccnc4ccccc34)[C@@]12C [Compound 14]	28; 67%	28; 67%	2.14 (pH=1)		IC50 [3]: 10 to 20 µM
CC(=O)O[C@H]1C[C@H]2[C@@H]([C@H](OC(C)=O)C[C@@H]3C[C@H](N)CC[C@@]32C)[C@@H]2CC[C@H]([C@H](C)CCCN(C)CCCCNc3ccnc4ccccc34)[C@@]12C [Compound 15]	70; 69%	70; 69%	2.11 (pH=1)		
CC(=O)O[C@H]1C[C@H]2[C@@H]([C@H](OC(C)=O)C[C@@H]3C[C@H](N)CC[C@@]32C)[C@@H]2CC[C@H]([C@H](C)CCCNCCCCNc3ccnc4cc(Cl)ccc34)[C@@]12C [Compound 16]			2.55 (pH=1); 2.07 (pH=7.3) ^d		toxicity in mES-MNs (GAPDH loading control levels lower) [4]: potential toxicity; % of full length SNAP-25, mES-MNs pre intoxication [3]: 72; 88%; IC50 [5]: 1 to 10 µM; Ksv for AGP [6]: (6.99±0.25)×10^5; Ksv for HSA [7]: (4.56±0.27)×10^4; host toxicity, single oral dose [8]: non-toxic; Mice alive/Total mice [8]: 5/5; time Tc > 3μM ([9]; mouse): >45 min
CC(=O)O[C@H]1C[C@H]2[C@@H]([C@H](OC(C)=O)C[C@@H]3C[C@H](N)CC[C@@]32C)[C@@H]2CC[C@H]([C@H](C)CCCNCCCC(C)Nc3ccnc4ccccc34)[C@@]12C (stereo partly drawn) [Compound 17]	67; 69%	67; 69%	2.28 (pH=1)		
CC(=O)O[C@H]1C[C@H]2[C@@H]([C@H](OC(C)=O)C[C@@H]3C[C@H](N)CC[C@@]32C)[C@@H]2CC[C@H]([C@H](C)CCCN(C)CCCC(C)Nc3ccnc4ccccc34)[C@@]12C (stereo partly drawn) [Compound 18]			2.38 (pH=1)		% of full length SNAP-25, mES-MNs pre intoxication [3]: 20; 41%
CC(=O)O[C@H]1C[C@H]2[C@@H]([C@H](OC(C)=O)C[C@@H]3C[C@H](N)CC[C@@]32C)[C@@H]2CC[C@H]([C@H](C)CCCNC(C)CCCNc3ccnc4ccccc34)[C@@]12C (stereo partly drawn) [Compound 19]	86; 87%	86; 87%	2.21 (pH=1)		Mice alive/Total mice [8]: 3/5
C[C@H](CCCNCCCCNc1ccnc2cc(Cl)ccc12)[C@H]1CC[C@H]2[C@@H]3[C@H](O)C[C@@H]4C[C@H](N)CC[C@]4(C)[C@H]3C[C@H](O)[C@]12C [Compound 24]			2.97 (pH=1)		IC50 [3]: 8 to 16 µM; % of full length SNAP-25, mES-MNs pre intoxication ([3]; 8 μM): 46; 58 ^e %; % of full length SNAP-25, mES-MNs pre intoxication ([3]; 16 μM): 46; 58 ^e %; detection as metabolite in mouse samples after oral 16 [9]: None of these metabolites were detected
CC(CCCNc1ccnc2ccccc12)NCc1ccc(-c2csc3ccc(F)cc23)cc1 (stereo not drawn) [Compound 34]				3.85 (pH=10)	% of full length SNAP-25, mES-MNs pre intoxication [3]: 58; 68%; IC50 [3]: 10 to 20 µM; Mice alive/Total mice [8]: 5/5
CC(CCCNCc1ccc(-c2csc3ccc(C#N)cc23)cc1)Nc1ccnc2ccccc12 (stereo not drawn) [Compound 36]	34; 53%	34; 53%		3.67 (pH=10)	
CN(CCCCNc1ccnc2ccccc12)Cc1ccc(-c2csc3ccc(F)cc23)cc1 [Compound 37]	44; 55%	44; 55%		3.98 (pH=10)	
CC(CCCN(C)Cc1ccc(-c2csc3ccc(C#N)cc23)cc1)Nc1ccnc2ccccc12 (stereo not drawn) [Compound 38]				3.42 (pH=10)	% of full length SNAP-25, mES-MNs pre intoxication [3]: 59; 64%; IC50 [3]: 10 to 20 µM
N#Cc1ccc(-c2ccc(-c3ccc(CNCCCCCCNc4ccnc5ccccc45)cc3)s2)cc1 [Compound 46]	22; 48%	22; 48%	3.08 (pH=1)		
N#Cc1ccc(-c2ccc(-c3cccc(CNCCCCCCNc4ccnc5ccccc45)c3)s2)cc1 [Compound 50]	46; 71%	46; 71%	3.08 (pH=1)		
CN(CCCNc1ccnc2cc(Cl)ccc12)CC12CC3CC(CC(C3)C1)C2 [Compound 57]	51; 56%	51; 56%		3.24 (pH=10)	Mice alive/Total mice [8]: 4/5

Compound	% of full length SNAP-25, mES-MNs pre intoxication ([3]; 10 μM)	% of full length SNAP-25, mES-MNs pre intoxication ([3]; 20 μM)	exp LogD (pH 1)	exp LogD (pH 10)	also measured
CC(CCN(C)CC12CC3CC(CC(C3)C1)C2)Nc1ccnc2cc(Cl)ccc12 (stereo not drawn) [Compound 60]	63; 72%	63; 72%		3.47 (pH=10)	IC50 [3]: < 10 µM; protection of SNAP-25, pre-exposure dose-response experiment [3]: 90%; Mice alive/Total mice [8]: 3/5
CN(CCCNc1ccnc2ccccc12)CC12CC3CC(CC(C3)C1)C2 [Compound 68]	30; 31%	30; 31%			
CC(CCNc1ccnc2ccccc12)NCCC12CC3CC(CC(C3)C1)C2 (stereo not drawn) [Compound 81]	23; 24%	23; 24%			
CC(CCN(C)CC12CC3CC(CC(C3)C1)C2)Nc1ccnc2ccccc12 (stereo not drawn) [Compound 85]					% of full length SNAP-25, mES-MNs pre intoxication [3]: 47; 46%
N#Cc1ccc2scc(-c3ccc(CNCCCCNc4ccnc5ccccc45)cc3)c2c1 [Compound 86]	21; 26%	21; 26%		3.67 (pH=10)	
N#Cc1ccc2scc(-c3ccc(CNCCCCCCNc4ccnc5ccccc45)cc3)c2c1 [Compound 87]	36; 43%	36; 43%		3.85 (pH=10)	
CC(CCCNCc1ccc(-c2csc3ccc(F)cc23)cc1)Nc1ccnc2ccccc12 (stereo not drawn) [Compound 91]				3.98 (pH=10)	% of full length SNAP-25, mES-MNs pre intoxication [3]: 62; 62%
N#Cc1ccc(-c2ccc(-c3ccc(CNCCCCCCCCNc4ccnc5ccccc45)cc3)s2)cc1 [Compound 93]			3.42 (pH=1)		% of full length SNAP-25, mES-MNs pre intoxication [3]: 31; 70%; Mice alive/Total mice [8]: 5/5
CN(CCCCCCCCNc1ccnc2ccccc12)Cc1ccc(-c2ccc(-c3ccc(C#N)cc3)s2)cc1 [Compound 96]			3.33 (pH=1)		% of full length SNAP-25, mES-MNs pre intoxication [3]: 54; 60%; IC50 [3]: 5 to 10 µM; Mice alive/Total mice [8]: 5/5
N#Cc1ccc(-c2ccc(-c3ccc(CNCCCCNc4ccnc5ccccc45)cc3)s2)cc1 [Compound 101]	18; 39%	18; 39%	2.93 (pH=1)		
CC(CCNc1ccnc2cc(Cl)ccc12)NCC12CC3CC(CC(C3)C1)C2 (stereo not drawn) [Compound 102]	29; 30%	29; 30%		3.40 (pH=10)	
CC(CCNCCC12CC3CC(CC(C3)C1)C2)Nc1c(F)cnc2cc(Cl)ccc12 (stereo not drawn) [Compound 103]	30; 29%	30; 29%		4.33 (pH=10)	
CC(CCNCC12CC3CC(CC(C3)C1)C2)Nc1c(F)cnc2cc(Cl)ccc12 (stereo not drawn) [Compound 104]	31; 35%	31; 35%		3.24 (pH=10)	
CC(CCNCC12CC3CC(CC(C3)C1)C2)Nc1c(F)cnc2ccccc12 (stereo not drawn) [Compound 105]	24; 23%	24; 23%		3.09 (pH=10)	
CC(CCNCCC12CC3CC(CC(C3)C1)C2)Nc1c(F)cnc2ccccc12 (stereo not drawn) [Compound 106]	30; 32%	30; 32%		4.13 (pH=10)	
